Reference: PubChem BioAssay AID1259407 (Chemical Carcinogenesis Research Information System (CCRIS), 2018)
The source made the active and inactive calls. The rule behind the calls is not given here.

Test system: CCRIS mutagenicity, Ames/micronucleus/aberration tests
Experiment: CCRIS mutagenicity studies

c1ccccc1
mutagenic call (Test System: AMES SALMONELLA TYPHIMURIUM, Strain/Indicator: TA100, Metabolic Activation: RAT, LIVER, S-9, PHENOBARBITAL, Method: PREINCUBATION): inactive; negative | mutagenic call (Test System: AMES SALMONELLA TYPHIMURIUM, Strain/Indicator: TA100, Metabolic Activation: RAT, LIVER, S-9, PHENOBARBITAL, Method: STANDARD PLATE): inactive; negative | mutagenic call (Test System: AMES SALMONELLA TYPHIMURIUM, Strain/Indicator: TA100, Metabolic Activation: RAT, LIVER, S-9, PYRAZOLE, Method: STANDARD PLATE): inactive; negative | mutagenic call (Test System: AMES SALMONELLA TYPHIMURIUM, Strain/Indicator: TA100, Metabolic Activation: S-9, Method: STANDARD PLATE): inactive; negative | mutagenic call (Test System: AMES SALMONELLA TYPHIMURIUM, Strain/Indicator: TA102, Metabolic Activation: NONE, Method: STANDARD PLATE): inactive; negative | mutagenic call (Test System: AMES SALMONELLA TYPHIMURIUM, Strain/Indicator: TA102, Metabolic Activation: RAT, LIVER, S-9, ETHANOL, Method: STANDARD PLATE): inactive; negative | mutagenic call (Test System: AMES SALMONELLA TYPHIMURIUM, Strain/Indicator: TA102, Metabolic Activation: RAT, LIVER, S-9, PYRAZOLE, Method: STANDARD PLATE): inactive; negative | mutagenic call (Test System: AMES SALMONELLA TYPHIMURIUM, Strain/Indicator: TA102, Metabolic Activation: S-9, Method: STANDARD PLATE): inactive; negative | mutagenic call (Test System: AMES SALMONELLA TYPHIMURIUM, Strain/Indicator: TA104, Metabolic Activation: RAT, LIVER, S-9, AROCLOR 1254, Method: DESICCATOR): inactive; negative | mutagenic call (Test System: AMES SALMONELLA TYPHIMURIUM, Strain/Indicator: TA1535, Metabolic Activation: HAMSTER LIVER S-9, AROCLOR 1254 (10 OR 30%), Method: PREINCUBATION): inactive; negative | mutagenic call (Test System: AMES SALMONELLA TYPHIMURIUM, Strain/Indicator: TA1535, Metabolic Activation: NONE, Method: DESICCATOR): inactive; negative | mutagenic call (Test System: AMES SALMONELLA TYPHIMURIUM, Strain/Indicator: TA1535, Metabolic Activation: NONE, Method: PREINCUBATION): inactive; negative | mutagenic call (Test System: AMES SALMONELLA TYPHIMURIUM, Strain/Indicator: TA1535, Metabolic Activation: NONE, Method: STANDARD PLATE): inactive; negative | mutagenic call (Test System: AMES SALMONELLA TYPHIMURIUM, Strain/Indicator: TA1535, Metabolic Activation: RAT LIVER S-9, AROCLOR 1254 (10 OR 30%), Method: PREINCUBATION): inactive; negative | mutagenic call (Test System: AMES SALMONELLA TYPHIMURIUM, Strain/Indicator: TA1535, Metabolic Activation: RAT, LIVER, S-9, AROCLOR 1254, Method: DESICCATOR): active; positive | mutagenic call (Test System: AMES SALMONELLA TYPHIMURIUM, Strain/Indicator: TA1535, Metabolic Activation: RAT, LIVER, S-9, AROCLOR 1254, Method: STANDARD PLATE): inactive; negative | mutagenic call (Test System: AMES SALMONELLA TYPHIMURIUM, Strain/Indicator: TA1535, Metabolic Activation: RAT, LIVER, S-9, PYRAZOLE, Method: STANDARD PLATE): inactive; negative | mutagenic call (Test System: AMES SALMONELLA TYPHIMURIUM, Strain/Indicator: TA1537, Metabolic Activation: NONE, Method: STANDARD PLATE): inactive; negative | mutagenic call (Test System: AMES SALMONELLA TYPHIMURIUM, Strain/Indicator: TA1537, Metabolic Activation: RAT, LIVER, S-9, AROCLOR 1254, Method: STANDARD PLATE): inactive; negative | mutagenic call (Test System: AMES SALMONELLA TYPHIMURIUM, Strain/Indicator: TA1537, Metabolic Activation: RAT, LIVER, S-9, PYRAZOLE, Method: STANDARD PLATE): inactive; negative | mutagenic call (Test System: AMES SALMONELLA TYPHIMURIUM, Strain/Indicator: TA1538, Metabolic Activation: NONE, Method: STANDARD PLATE): inactive; negative | mutagenic call (Test System: AMES SALMONELLA TYPHIMURIUM, Strain/Indicator: TA1538, Metabolic Activation: RAT, LIVER, S-9, AROCLOR 1254, Method: STANDARD PLATE): inactive; negative | mutagenic call (Test System: AMES SALMONELLA TYPHIMURIUM, Strain/Indicator: TM677/8-AZAGUANINE, Metabolic Activation: NONE, Method: PREINCUBATION): inactive; negative | mutagenic call (Test System: AMES SALMONELLA TYPHIMURIUM, Strain/Indicator: TM677/8-AZAGUANINE, Metabolic Activation: RAT, LIVER, S-9, PHENOBARBITAL, Method: PREINCUBATION): inactive; negative | mutagenic call (Test System: AMES SALMONELLA TYPHIMURIUM, Strain/Indicator: TM677, Metabolic Activation: NONE, Method: STANDARD PLATE): inactive; negative | mutagenic call (Test System: AMES SALMONELLA TYPHIMURIUM, Strain/Indicator: UTH8413, Metabolic Activation: NONE, Method: STANDARD PLATE): inactive; negative | mutagenic call (Test System: AMES SALMONELLA TYPHIMURIUM, Strain/Indicator: UTH8413, Metabolic Activation: RAT, LIVER, S-9, AROCLOR, Method: STANDARD PLATE): inactive; negative | mutagenic call (Test System: AMES SALMONELLA TYPHIMURIUM, Strain/Indicator: UTH8414, Metabolic Activation: NONE, Method: STANDARD PLATE): inactive; negative | mutagenic call (Test System: AMES SALMONELLA TYPHIMURIUM, Strain/Indicator: UTH8414, Metabolic Activation: RAT, LIVER, S-9, AROCLOR, Method: STANDARD PLATE): inactive; negative | mutagenic call (Test System: CHINESE HAMSTER OVARY, Strain/Indicator: CHO-K1-BH4 (HGPRT), Metabolic Activation: NONE, Method: SUSPENSION/PLATE): inactive; negative | mutagenic call (Test System: CHINESE HAMSTER OVARY, Strain/Indicator: CHO-K1-BH4 (HGPRT), Metabolic Activation: RAT, LIVER, S-9, AROCLOR, Method: SUSPENSION/PLATE): inactive; negative | mutagenic call (Test System: CHINESE HAMSTER OVARY, Strain/Indicator: CHO/6-THIOGUANINE, Metabolic Activation: HAMSTER EMBRYO CELL-MEDIATED): inactive; negative | mutagenic call (Test System: CHINESE HAMSTER OVARY, Strain/Indicator: CHO/6-THIOGUANINE, Metabolic Activation: NONE): inactive; negative | mutagenic call (Test System: CHINESE HAMSTER OVARY, Strain/Indicator: CHO/OUABAIN, Metabolic Activation: HAMSTER EMBRYO CELL-MEDIATED): inactive; negative | mutagenic call (Test System: CHINESE HAMSTER OVARY, Strain/Indicator: CHO/OUABAIN, Metabolic Activation: NONE): inactive; negative | mutagenic call (Test System: CHINESE HAMSTER V-79, Strain/Indicator: V-79 (HGPRT)/6-THIOGUANINE, Metabolic Activation: NONE): inactive; negative | mutagenic call (Test System: CHINESE HAMSTER V-79, Strain/Indicator: V-79 (HGPRT)/6-THIOGUANINE, Metabolic Activation: RAT, LIVER, S-9, PHENOBARBITAL AND BETA-NAPHTHOFLAVONE): inactive; negative | mutagenic call (Test System: CHINESE HAMSTER V-79, Strain/Indicator: V-79/6-THIOGUANINE, Metabolic Activation: RAT, LIVER, S-9, PHENOBARBITAL AND 5,6-BENZOFLAVONE, Method: REPLATING): inactive; negative | mutagenic call (Test System: MOUSE LYMPHOMA, Strain/Indicator: L5178Y (TK+/+)/OUABAIN, Metabolic Activation: RAT LIVER S-9, AROCLOR 1254, Method: SUSPENSION/PLATE): active; positive | mutagenic call (Test System: MOUSE LYMPHOMA, Strain/Indicator: L5178Y (TK+/TK-), Metabolic Activation: NONE, Method: MICROWELL): active; positive | mutagenic call (Test System: MOUSE LYMPHOMA, Strain/Indicator: L5178Y (TK+/TK-), Metabolic Activation: NONE, Method: SUSPENSION/PLATE): inactive; negative | mutagenic call (Test System: MOUSE LYMPHOMA, Strain/Indicator: L5178Y (TK+/TK-), Metabolic Activation: RAT, LIVER, S-9, AROCLOR 1254, Method: SUSPENSION/PLATE): active; positive | mutagenic call (Test System: MOUSE LYMPHOMA, Strain/Indicator: L5178Y (TK+/TK-), Metabolic Activation: RAT, LIVER, S-9, Method: SUSPENSION/PLATE): inactive; negative | mutagenic call (Test System: MOUSE LYMPHOMA, Strain/Indicator: L5178Y (TK+/TK-), Metabolic Activation: S-9, Method: MICROWELL): active; positive | mutagenic call (Test System: MOUSE LYMPHOMA, Strain/Indicator: L5178Y(TK+/-)/TRIFLUOROTHYMIDINE, Metabolic Activation: RAT LIVER s-9, AROCLOR 1254, Method: SUSPENSION/PLATE): active; positive | mutagenic call (Test System: UDS RAT HEPATOCYTES, Strain/Indicator: THY INCORP, Metabolic Activation: NONE, Method: LIQUID SCINTILLATION COUNTING): active; positive | mutagenic call (Test System: UDS SHE CELLS, Strain/Indicator: THY INCORP, Metabolic Activation: NONE, Method: LIQUID SCINTILLATION COUNTING): inactive; negative
